The conditions of data set [1]: in vivo; cited from earlier work.

Where two headings read alike, the source gives them in different places.

Turning to `CC/C(=C(\c1ccccc1)c1ccc(OCCN(C)C)cc1)c1ccccc1` [Tamoxifen], in data set [1], the t1/2 is recorded as 8 days.

Consider `Cc1nc2n(c(=O)c1CCN1CCC(c3noc4cc(F)ccc34)CC1)CCCC2` [risperidone, Risperidone], for which the “Concentration of risperidone in blood plasma: influence of genotype” value (genotype of CYP2D6*10) is listed as “significantly varied”. The “Concentration of risperidone in blood plasma” value is recorded as “capable of being measured” (participants with mutant type, 48 hours after dosing); “reduced below a measurable level” (participants with only wild type, 24 hours after dosing); “considerably low” (wild type participants compared to heterozygous or mutant type (FIG. 7-9)).

For the compound `CC/C(=C(\c1ccccc1)c1ccc(OCCNC)cc1)c1ccccc1` [demethyltamoxifen], the t1/2 in data set [1] is given as 11 days.

On to `CCN(CC)CCCC(C)Nc1ccnc2cc(Cl)ccc12` (stereo not shown) [Chloroquine], for which, in data set [1], the t1/2 is 41 days.

(Values after US20100261219A1, “TEST METHOD OF BIOAVAILABILITY AND BIOEQUIVALENCE FOR XENOBIOTICS USING GENETIC PROFILING” (priority 2008, published 2010).)
